# Where “and” joins values, the source holds several entries; their conditions need not be identical. Identical values can stand only once.
# Tests used:
# monocytes = test: superoxide generation by monocytes; type: cell-based, Human; conditions: PMA treatment (positive control), one value per test series
# Description: Human peripheral blood mononuclear cells were obtained by standard procedures employing continuous flow cell separation (leukapheresis), such as described in Wahl, et al., Cellular Immunol. 85:373-383 (1984). The preparation was diluted in phosphate-buffered saline and layered onto gradients of Ficoll-Paque (Pharmacia-PL Biochemicals, Piscataway, N.J., USA). After centrifugation, mononuclear cells were pipetted from the interface, washed, and suspended in DMEM-GG-FCS. They were then fractionated by countercurrent centrifugal elutriation. The procedure comprises the Beckman elutriation system including a J-21 Beckman Centrifuge, a JE-6 elutriator rotor, a stroboscope, and a Masterflex pump and pumphead. The cells were loaded into the rotor and fractionated by elution at increasing flow rates. Fractions 7 and 8, highly enriched for monocytes, were pooled for use.
# [1] = solute release from liposomes at 4°C; type: physicochemical; conditions: from liposomes at 4°C in 2 days
# Description: Rates of solute release were determined by adding 145 microliters of phosphate buffered saline to 25 microliters of liposomes and centrifuging in an Airfuge (Beckman) at approximately 100,000G for 10 minutes. The liposome pellets were then counted for ¹⁴C lipid, and 100 microliters of each supernatant was diluted 5-fold with phosphate buffered saline for ultraviolet spectroscopy. […] In each case, the triphosphates are released less, and the less phosphorylated forms are released to a greater extent.
# [2] = volume of encapsulation in liposomes; type: physicochemical; conditions: freeze-thawed multilamellar EPC/PS/cholesterol liposomes; 8 mM solute
# Description: 2ʹ,3ʹ-dideoxyguanosine 5ʹ-triphosphate (ddGTP), 2ʹ,3ʹ-dideoxyadenosine 5ʹ-triphosphate (ddATP), 2ʹ,3ʹ-dideoxythymidine 5ʹ-triphosphate (ddTTP), 2ʹ,3ʹ-dideoxycytidine 5ʹ-diphosphate (ddCDP), and 2ʹ,3ʹ-dideoxy cytidine 5ʹ-monophosphate (ddCMP) were obtained from Pharmacia (Piscataway, N.J., USA). Liposomes containing each of these agents were prepared using 56 mg EPC, 29 mg PS, 33 mg cholesterol, and 0.125 micro Ci ¹⁴C-cholesteryl oleate. Solutions for encapsulation were 8 mM nucleoside or nucleotide in phosphate-buffered saline pH 7. Liposomes were prepared essentially as described in Example 2, by drying lipid onto the walls of a glass vial, hydrating the lipid with a portion of the solution to be encapsulated, vortex-mixing, and freeze-thawing 5 times with liquid nitrogen. However, the lipid was hydrated in 0.8 ml, rather than 1.0 ml, and the extrusion step was eliminated. […] The preparation was washed by centrifugation 3 times to remove unencapsulated solute. The volume encapsulated was determined by extraction, using equal volumes of chloroform:methanol (65:25) and phosphate buffered saline. The nucleoside and nucleotide solutes partitioned largely into the aqueous phase, whereas lipid was found in the organic phase and near the interface after centrifugation. The amount of solute encapsulated was determined by standard ultraviolet spectroscopy, and the lipid was measured by counting the ¹⁴C label in scintillation fluid.
# adherent human monocytes = test: uptake of dideoxynucleotides; type: cell-based; conditions: 37°C, drug 1 uM
# Description: Uptake of ₃H-deoxyctidine triphosphate (³H-dCTP) was used as an indicator of the uptake of vesicle contents by cells. Uptake experiments were done by plating 5 × 10⁶ monocytes in each well of a 6-well microtiter plate (Costar) and adding reagents one or two days later. Incubations were done in DMEM-GG-FCS at 37°C. The rate of increase of dCTP content in the cells over a 9-hour period (Table 7) averaged 0.29 pmole/million cells/hr with liposomes containing 4 mM EPC. Other experiments established that ddCTP and ddCMP are not readily taken up by the cells (Table 9).
# in vitro = in vitro ADME; conditions: dmem-gg-fcs
# Description: When the same incubations were done in the absence of monocytes, the results were essentially identical.
# Studies were conducted under conditions mimicking those of anti-viral tests. ddCMP: dideoxycytidine monophosphate. Data points represent integrals under HPLC peaks from gradient elution on a VYDAC nucleotide column.
smiles,measurement,setting,value
"CCCCCCCCCCCCCC(=O)O[C@@H]1[C@@H](C)[C@@]2(O)[C@@H](C=C(CO)C[C@]3(O)C(=O)C(C)=C[C@@H]23)[C@@H]2C(C)(C)[C@]12OC(C)=O [PMA, phorbol myristyl acetate, reference compound]",Superoxide,monocytes,3.23 (.09) nmoles/well and 3.30 (.12) nmoles/well and 3.26 (.05) nmoles/well and 3.46 (.12) nmoles/well
"Nc1ncnc2c1ncn2[C@H]1CC[C@@H](COP(=O)(O)OP(=O)(O)OP(=O)(O)O)O1 [ddATP, 2ʹ,3ʹ-dideoxyadenosine 5ʹ-triphosphate]",Percent Release,[1],0.9%
same,Volume of Encapsulation,[2],1.30 microliters/micromole EPC
"Nc1ccn([C@H]2CC[C@@H](CO)O2)c(=O)n1 [ddC, dideoxycytidine, reference compound]",pmole drug/1 million cells (mean),adherent human monocytes; 0. h,0.05 pmole drug/1 million cells
same,pmole drug/1 million cells (mean),adherent human monocytes; 0.33 h,0.01 pmole drug/1 million cells
same,pmole drug/1 million cells (mean),adherent human monocytes; 1.00 h,0.19 pmole drug/1 million cells
same,pmole drug/1 million cells (mean),adherent human monocytes; 3.00 h,0.43 pmole drug/1 million cells
same,pmole drug/1 million cells (mean),adherent human monocytes; 6.00 h,1.30 pmole drug/1 million cells
same,pmole drug/1 million cells (mean),adherent human monocytes; 9.00 h,1.90 pmole drug/1 million cells
same,pmole drug/1 million cells (mean),adherent human monocytes; 20.00 h,0.81 pmole drug/1 million cells
"Nc1ccn([C@H]2CC[C@@H](COP(=O)(O)OP(=O)(O)O)O2)c(=O)n1 [ddCDP, 2ʹ,3ʹ-dideoxycytidine 5ʹ-diphosphate]",Percent Release,[1],6.2%
same,Volume of Encapsulation,[2],1.26 microliters/micromole EPC
"Nc1ccn([C@H]2CC[C@@H](COP(=O)(O)O)O2)c(=O)n1 [ddCMP, 2ʹ,3ʹ-dideoxycytidine 5ʹ-monophosphate]",pmole drug/1 million cells (mean),adherent human monocytes; 0. h,0.07 pmole drug/1 million cells
same,pmole drug/1 million cells (mean),adherent human monocytes; 0.33 h,0.18 pmole drug/1 million cells
same,pmole drug/1 million cells (mean),adherent human monocytes; 1.00 h,0.22 pmole drug/1 million cells
same,pmole drug/1 million cells (mean),adherent human monocytes; 3.00 h,0.08 pmole drug/1 million cells
same,pmole drug/1 million cells (mean),adherent human monocytes; 6.00 h,0.20 pmole drug/1 million cells
same,Percent Release,[1],6.9%
same,Volume of Encapsulation,[2],0.76 microliters/micromole EPC
same,metabolised at 72 h,in vitro,93%
"Nc1nc2c(ncn2[C@H]2CC[C@@H](COP(=O)(O)OP(=O)(O)OP(=O)(O)O)O2)c(=O)[nH]1 [ddGTP, 2ʹ,3ʹ-dideoxyguanosine 5ʹ-triphosphate]",Percent Release,[1],0.3%
same,Volume of Encapsulation,[2],2.74 microliters/micromole EPC
"Cc1cn([C@H]2CC[C@@H](CO)O2)c(=O)[nH]c1=O [ddT, dideoxythymidine, reference compound]",Percent Release,[1],45.1%
same,Volume of Encapsulation,[2],1.29 microliters/micromole EPC
"Cc1cn([C@H]2CC[C@@H](COP(=O)(O)OP(=O)(O)OP(=O)(O)O)O2)c(=O)[nH]c1=O [ddTTP, 2ʹ,3ʹ-dideoxythymidine 5ʹ-triphosphate]",Percent Release,[1],0.04%
same,Volume of Encapsulation,[2],1.61 microliters/micromole EPC

# — patent publication EP0286418A1, “Anti-retroviral agents and delivery systems for the same” (priority 1987, dated 1988)
